The values that follow come from patent US7968570B2, “Isoindolone compounds and their use as metabotropic glutamate receptor potentiators” (AstraZeneca AB, priority 2004, dated 2011).

As usually defined, the pEC50 is the negative decadic logarithm of the EC50, by convention in mol/L. Low readings indicate a large EC50, high ones a small EC50.

For this test, the target named is T1, human mGluR2 receptor (Homo sapiens, UniProt Q14416).
T1 construct: expressed in transfected cells
In words: [35S]-GTPγS binding assay of mGluR2 receptor activation. The class given is biochemical. The protocol:
A [^35S]-GTPγS binding assay was used to functionally assay mGluR2 receptor activation. The allosteric activator activity of compounds at the human mGluR2 receptor were measured using a [^35S]-GTPγS binding assay with membranes prepared from CHO cells which stably express the human mGluR2. The assay is based upon the principle that agonists bind to G-protein coupled receptors to stimulate GDP-GTP exchange at the G-protein. Since [^35S]-GTPγS is a non-hydrolyzable GTP analog, it can be used to provide an index of GDP-GTP exchange and, thus, receptor activation. The GTPγS binding assay therefore provides a quantitative measure of receptor activation.
Membranes were prepared from CHO cells stably transfected with human mGluR2. Membranes (30 μg protein) were incubated with test compound (3 nM to 300 μM) for 15 minutes at room temperature prior to the addition of 1 μM glutamate, and incubated for 30 min at 30° C. in 500 μl assay buffer (20 mM HEPES, 100 mM NaCl, 10 mM MgCl2), containing 30 μM GDP and 0.1 nM [^35S]-GTPγS (1250 Ci/mmol). Reactions were carried out in triplicate in 2 ml polypropylene 96-well plates. Reactions were terminated by vacuum filtration using a Packard 96-well harvester and Unifilter-96, GF/B filter microplates. The filter plates were washed 4×1.5 ml with ice-cold wash buffer (10 mM sodium phosphate buffer, pH 7.4). The filter plates were dried and 35 μl of scintillation fluid (Microscint 20) was added to each well. The amount of radioactivity bound was determined by counting plates on the Packard TopCount. Data was analyzed using GraphPad Prism, and EC50 and Emax values (relative to the maximum glutamate effect) were calculated using non-linear regression.
(In general: GTPγS resists hydrolysis and so accumulates on activated G proteins.)

[1] abbreviates: membranes from CHO cells stably expressing human mGluR2, 1 μM glutamate.

pEC50: −log10 of the molar value. Read-outs that look alike come from different tables or passages of the source.

T1 sequence (Q14416 19-872): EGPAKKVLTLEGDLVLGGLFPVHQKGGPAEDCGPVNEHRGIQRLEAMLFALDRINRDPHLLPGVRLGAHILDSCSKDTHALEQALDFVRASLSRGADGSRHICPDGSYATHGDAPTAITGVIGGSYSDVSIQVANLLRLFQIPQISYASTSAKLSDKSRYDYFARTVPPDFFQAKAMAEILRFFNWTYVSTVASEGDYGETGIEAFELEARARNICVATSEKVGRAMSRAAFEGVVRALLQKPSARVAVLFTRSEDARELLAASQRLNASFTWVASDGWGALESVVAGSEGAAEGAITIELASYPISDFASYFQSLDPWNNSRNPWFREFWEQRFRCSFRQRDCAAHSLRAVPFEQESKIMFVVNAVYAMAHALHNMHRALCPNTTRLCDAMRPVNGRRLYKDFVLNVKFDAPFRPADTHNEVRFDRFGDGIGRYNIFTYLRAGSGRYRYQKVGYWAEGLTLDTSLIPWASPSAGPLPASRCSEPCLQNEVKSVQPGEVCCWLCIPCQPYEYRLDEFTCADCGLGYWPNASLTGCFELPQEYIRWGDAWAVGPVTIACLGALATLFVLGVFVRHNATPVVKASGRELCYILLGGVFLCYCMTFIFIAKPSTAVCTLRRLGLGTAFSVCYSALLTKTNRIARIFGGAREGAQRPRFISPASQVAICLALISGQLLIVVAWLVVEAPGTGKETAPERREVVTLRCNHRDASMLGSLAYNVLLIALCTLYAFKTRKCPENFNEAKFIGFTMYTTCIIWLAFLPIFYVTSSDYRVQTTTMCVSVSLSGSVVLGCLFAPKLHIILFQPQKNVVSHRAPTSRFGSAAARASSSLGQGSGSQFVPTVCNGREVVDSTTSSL

As for `O=C1c2c(Cl)cc(N3CCN4CCCC4C3)cc2CN1Cc1ccc(OC(F)(F)F)cc1` (stereo not drawn) [Example 132, 7-Chloro-5-(hexahydro-pyrrolo[1,2-a]pyrazin-2-yl)-2-(4-trifluoromethoxy-benzyl)-2,3-dihydro-isoindol-1-one], the pEC50 under setting [1] is 6.32. In turn, `CN1CCN(c2cc(Cl)c3c(c2)CN(Cc2ccc(Cl)cc2)C3=O)CC1` [Example 133, 7-Chloro-2-(4-chlorobenzyl)-5-(4-methyl-piperazin-1-yl)-2,3-dihydroisoindol-1-one] showed a negative-log EC50 (pEC50) under setting [1] of 6.23. On the same count and under the same terms, to `O=C1c2c(Cl)cc(N3CCN4CCCC4C3)cc2CN1Cc1ccc(Cl)cc1` (stereo not drawn) [Example 134, 7-Chloro-2-(4-chloro-benzyl)-5-(hexahydro-pyrrolo[1,2-a]pyrazin-2-yl)-2,3-dihydro-isoindol-1-one] belongs 6.21. On to `CN(C)C1CCN(c2cc(Cl)c3c(c2)CN(Cc2ccc(Cl)cc2)C3=O)C1` (stereo not drawn) [Example 135, 7-Chloro-2-(4-chloro-benzyl)-5-(3-dimethylamino-pyrolidin-1-yl)-2,3-dihydro-isoindol-1-one], for which the negative-log EC50 (pEC50) under setting [1] was 6.21. With `Cc1cc(N2CCN(Cc3ccncc3)CC2)cc2c1C(=O)N(Cc1ccc(OC(F)(F)F)cc1)C2` [Example 136, 7-Methyl-5-(4-pyridin-4-ylmethyl-piperazin-1-yl)-2-(4-trifluoromethoxy-benzyl)-2,3-dihydro-isoindol-1-one], the pEC50 under setting [1] is 6.15.

Turning to `Cc1cc(N2CCN(CCc3ccncc3)CC2)cc2c1C(=O)N(Cc1ccc(OC(F)(F)F)cc1)C2` [Example 137], under setting [1], the negative-log EC50 (pEC50) was 7.00. `Cc1cc(N2CCN(Cc3cccnc3)CC2)cc2c1C(=O)N(Cc1ccc(OC(F)(F)F)cc1)C2` [Example 138, 7-Methyl-5-(4-pyridin-3-ylmethyl-piperazin-1-yl)-2-(4-trifluoromethoxy-benzyl)-2,3-dihydro-isoindol-1-one]: the negative-log EC50 (pEC50) under setting [1] is 6.44. In turn, `Cc1cc(N2CCN(CC3CCCN(C)C3)CC2)cc2c1C(=O)N(Cc1ccc(OC(F)(F)F)cc1)C2` (stereo not drawn) [Example 139, 7-Methyl-5-[4-(1-methyl-piperidin-3-ylmethyl)-piperazin-1-yl]-2-(4-tri-fluoromethoxy-benzyl)-2,3-dihydro-isoindol-1-one] gave a pEC50 under setting [1] of 5.98. Still for that read-out and setting: to `Cc1cc(N2CCN(CCN(C)C)CC2)cc2c1C(=O)N(Cc1ccc(OC(F)(F)F)cc1)C2` [Example 140, 5-[4-(2-Dimethylamino-ethyl)-piperazin-1-yl]-7-methyl-2-(4-trifluoro-methoxy-benzyl)-2,3-dihydro-isoindol-1-one] belongs 5.92. With `Cc1cc(N2CCN(CCCN(C)C)CC2)cc2c1C(=O)N(Cc1ccc(OC(F)(F)F)cc1)C2` [Example 141, 5-[4-(3-Dimethylamino-propyl)-piperazin-1-yl]-7-methyl-2-(4-trifluoro-methoxy-benzyl)-2,3-dihydro-isoindol-1-one], the negative-log EC50 (pEC50) under setting [1] was 6.12. The compound `Cc1cc(N2CCN(Cc3ccncc3)CC2)cc2c1C(=O)N(Cc1ccc(N3CCN(Cc4ccncc4)CC3)cc1)C2` [Example 142, 7-Methyl-5-(4-pyridin-4-ylmethyl-piperazin-1-yl)-2-[4-(4-pyridin-4-ylmethyl-piperazin-1-yl)-benzyl]-2,3-dihydro-isoindol-1-one] showed a negative logarithm of the EC50 (pEC50) under setting [1] of 5.39. `Cc1cc(N2CCN(Cc3ccncc3)CC2)cc2c1C(=O)N(Cc1ccc(Cl)cc1)C2` [Example 143, 2-(4-Chloro-benzyl)-7-methyl-5-(4-pyridin-4-ylmethyl-piperazin-1-yl)-2,3-dihydro-isoindol-1-one] showed a negative logarithm of the EC50 (pEC50) under setting [1] of 6.38. For `O=C1c2c(Cl)cc(N3CCN(c4ccncc4)CC3)cc2CN1Cc1ccc(OC(F)(F)F)cc1` [Example 145, 7-Chloro-5-(4-pyridin-4-yl-piperazin-1-yl)-2-(4-trifluoromethoxy-benzyl)-2,3-dihydro-isoindol-1-one], the negative logarithm of the EC50 (pEC50) under setting [1] is 6.40. `CCCN1CCN(c2ccc3c(c2)CN(Cc2ccc(OC(F)(F)F)cc2)C3=O)CC1` [Example 146, 5-(4-Propyl-piperazin-1-yl)-2-(4-tri-fluoromethoxy-benzyl)-2,3-dihydro-isoindol-1-one] showed a pEC50 under setting [1] of 5.35. As for `COCCN1CCN(c2ccc3c(c2)CN(Cc2ccc(OC(F)(F)F)cc2)C3=O)CC1` [Example 147, 5-[4-(2-Methoxy-ethyl)-piperazin-1-yl]-2-(4-trifluoromethoxy-benzyl)-2,3-dihydro-isoindol-1-one], the pEC50 under setting [1] was 5.18. `O=C(CN1CCN(c2ccc3c(c2)CN(Cc2ccc(OC(F)(F)F)cc2)C3=O)CC1)N1CCCC1` [Example 148, 5-[4-(2-Oxo-2-pyrrolidin-1-yl-ethyl)-piperazin-1-yl]-2-(4-trifluoromethoxy-benzyl)-2,3-dihydro-isoindol-1-one] had a pEC50 under setting [1] of 5.17. `O=C1c2ccc(N3CCN(c4ccncc4)CC3)cc2CN1Cc1ccc(OC(F)(F)F)cc1` [Example 149, 5-(4-Pyridin-4-yl-piperazin-1-yl)-2-(4-trifluoromethoxy-benzyl)-2,3-dihydro isoindol-1-one] had a pEC50 under setting [1] of 5.01. The compound `O=C1c2ccc(N3CCOCC3)cc2CN1Cc1ccc(OC(F)(F)F)cc1` [Example 150, 5-Morpholin-4-yl-2-(4-trifluoromethoxy-benzyl)-2,3-dihydro-isoindol-1-one] had a negative logarithm of the EC50 (pEC50) under setting [1] of 5.06. Same read-out and setting: the result for `CN1CN(c2ccccc2)C2(CCN(c3ccc4c(c3)CN(Cc3ccc(OC(F)(F)F)cc3)C4=O)CC2)C1=O` [Example 151, 3-Methyl-8-[1-oxo-2-(4-trifluoromethoxy-benzyl)-2,3-dihydro-1H-isoindol-5-yl]-1-phenyl-1,3,8-triaza-spiro[4.5]decan-4-one] reads 6.32; that for `O=C1c2ccc(N3CCC(CCCc4ccccc4)CC3)cc2CN1Cc1ccc(OC(F)(F)F)cc1` [Example 152, 5-[4-(3-Phenyl-propyl)-piperidin-1-yl]-2-(4-trifluoromethoxy-benzyl)-2,3-dihydro-isoindol-1-one], 6.29; that for `O=C1c2ccc(N3CCC4(CC3)C(=O)N(Cc3ccc(F)cc3)CN4c3ccccc3)cc2CN1Cc1ccc(OC(F)(F)F)cc1` [Example 153, 3-(4-Fluoro-benzyl)-8-[1-oxo-2-(4-trifluoromethoxy-benzyl)-2,3-dihydro-1H-isoindol-5-yl]-1-phenyl-1,3,8-triaza-spiro[4.5] decan-4-one], 5.58. For `COCCN1CCN(c2cc(Cl)c3c(c2)CN(Cc2ccc(OC(F)(F)F)cc2)C3=O)CC1` [Example 154, 7-Chloro-5-[4-(2-methoxy-ethyl)-piperazin-1-yl]-2-(4-trifluoromethoxy-benzyl)-2,3-dihydro-isoindol-1-one], the pEC50 under setting [1] was 6.68. This pEC50 lies 1.10 log units higher than the previous one. Turning to `O=C1c2c(Cl)cc(N3CCOCC3)cc2CN1Cc1ccc(OC(F)(F)F)cc1` [Example 155, 7-Chloro-5-morpholin-4-yl-2-(4-trifluoromethoxy-benzyl)-2,3-dihydro-isoindol-1-one], under setting [1], the negative-log EC50 (pEC50) was 6.28. Compared with the last compound, the pEC50 is 0.40 log units lower. Under setting [1], `O=C(CN1CCN(c2cc(Cl)c3c(c2)CN(Cc2ccc(OC(F)(F)F)cc2)C3=O)CC1)N1CCCC1` [Example 156, 7-Chloro-5-[4-(2-oxo-2-pyrrolidin-1-yl-ethyl)-piperazin-1-yl]-2-(4-trifluoromethoxy-benzyl)-2,3-dihydro-isoindol-1-one] showed a pEC50 of 6.49. The same measure, in the same setting: the result for `Cc1cc(C2CCNCC2)cc2c1C(=O)N(Cc1ccc(OC(F)(F)F)cc1)C2` [Example 158, 7-Methyl-5-piperidin-4-yl-2-(4-trifluoromethoxy-benzyl)-2,3-dihydro-isoindol-1-one] reads 5.69; that for `Cc1cc(C2CCN(C)CC2)cc2c1C(=O)N(Cc1ccc(OC(F)(F)F)cc1)C2` [Example 159, 7-Methyl-5-(1-methyl-piperidin-4-yl)-2-(4-trifluoromethoxy-benzyl)-2,3-dihydro-isoindol-1-one], 5.89; that for `Cc1cc(C(=O)N2CCN(Cc3ccccc3)CC2)cc2c1C(=O)N(Cc1ccc(OC(F)(F)F)cc1)C2` [Example 161, 5-(4-Benzyl-piperazine-1-carbonyl)-7-methyl-2-(4-trifluoromethoxy-benzyl)-2,3-dihydro-isoindol-1-one], 6.20.

For `Cc1cc(C(=O)N2CCN(Cc3ccncc3)CC2)cc2c1C(=O)N(Cc1ccc(OC(F)(F)F)cc1)C2` [Example 162, 7-Methyl-5-(4-pyridin-4-ylmethyl-piperazine-1-carbonyl)-2-(4-trifluoromethoxy-benzyl)-2,3-dihydro-isoindol-1-one], the pEC50 under setting [1] is 6.26.

`Cc1cc(C(=O)N2CCN(CCc3ccncc3)CC2)cc2c1C(=O)N(Cc1ccc(OC(F)(F)F)cc1)C2` [Example 163, 7-Methyl-5-[4-(2-pyridin-4-yl-ethyl)piperazine-1-carbonyl]-2-(4-trifluoromethoxy-benzyl)-2,3-dihydro-isoindol-1-one] gave a pEC50 under setting [1] of 5.92. This pEC50 lies 0.34 log units lower than the previous one. `CCN1CCC(Cc2cc(C)c3c(c2)CN(Cc2ccc(OC(F)(F)F)cc2)C3=O)CC1` [Example 166, 5-(1-Ethyl-piperidin-4-ylmethyl)-7-methyl-2-(4-trifluorometh-oxy-benzyl)-2,3-dihydro-isoindol-1-one] had a negative logarithm of the EC50 (pEC50) of 6.28.
